From patent publication US5830910A (priority 1995, dated 1998)
Entries after “also recorded” stand apart in the source; their conditions may differ.

Legend:
Type in all cases: cell-based, rat
[1] = test system: cultured hippocampal neurons; conditions: 100 nM, added 1 h before 50 μM Aβ; 48 h
Description: (§1) Dissociated embryonic rat hippocampal cell cultures were established and maintained. All procedures conformed with the NIH Guide for the Care and Use of Laboratory Animals and were approved by the University of Kentucky Animal Care and Use Committee. Cultures were maintained on a polyethyleneimine-coated substrate in plastic 35-mm dishes or 96 wall plates (for cell survival studies) or glass-bottom 35-mm dishes (for [Ca^2+ ]i imaging studies). The cell density was ^~ 70-100 cells/mm^2. Cells were maintained in Eagle's minimum essential medium supplemented 10% with fetal bovine serum and containing 20 mM sodium pyruvate. […] Aβ25-35 (Bachem, lot ZJ744) and Aβ1-40 (Bachem, lot ZK600) were stored in the lyophilized form, and stocks were prepared immediately before use by dissolving the peptide at a concentration of 1 mM in sterile distilled water. […] Glutamate and colchicine (Sigma) were prepared as 200-500x stocks in saline. Cytochalasins D and E (Sigma) and calcium ionophore 4-bromo-A23187 (Calbiochem) were prepared as 500x stocks in dimethyl sulfoxide. Vitamin E (α-tocopherol; Sigma) was prepared as a 500x stock in ethanol. Nordihydroguaiaretic acid and FeSo4 were prepared as 500x stocks in sterile water.
(§2) Neuronal survival was quantified by counting viable neurons in the same microscope fields (10x objective) immediately before experimental treatment and at time points after treatment. In addition, cells were grown in 96-well plates and Alamar blue fluorescence (Alamar Laboratories)was quantified by using a fluorescence plate reader. Alamar Blue is a non-fluorescent substrate that, after reduction by cell metabolites, becomes fluorescent. Usually neurons that died in the time intervals (20-48 h) between examination points were absent. Viability of the remaining neurons was assessed by morphological criteria. Neutrons with intact neurites of uniform diameter and a soma with a smooth, round appearance were considered viable, whereas neurons with fragmented neurites and a vacuolated or swollen soma were considered nonviable. Survival values were expressed as percentages of the initial number of neurons present before experimental treatment. Statistical comparisons were made using ANOVA and Scheffe post-hoc tests for pairwise comparisons.
FIG. 12. (A) Cultures were pretreated for 1 h with vehicle 0.2% dimethyl sulfoxide (Control) or 100 nM cytochalasin D (CyD) and were exposed to the indicated concentrations of Aβ25-35 for 48 h. Data are mean and SEM values of determinations made in four separate cultures.
(B) Cultures were pretreated for 1 h with the indicated concentrations of cytochalasin D and then exposed to 50 μM Aβ25-35; parallel cultures were exposed to cytochalasin D alone (Control) . Data are mean and SEM values of determinations made in four separate cultures.
FIG. 14. Cultures were exposed to 100 nM colchicine; 50 μM Aβ; 100 nM colchicine plus 50 μM Aβ; 100 nM cytochalasin E (CyE) plus Aβ (colchicine and cytochalasin E were added 1 h before Aβ); neuronal survival was assessed 48 h later. Data are mean and SEM values of determinations made in four separate cultures. *p<0.01, compared with values for control or colchicine alone. **p<0.01, compared with value for cultures exposed to Aβ alone.

[2] = test system: actin stress fibers in astrocytes; assay: phalloidin staining of actin stress fibers, astrocytes; conditions: 10-1000 nM (FIG. 4A: 100 nM), 3 h
Experimental: (§3) Hippocampal cells were exposed to cytochalasin D and then fixed for 30 min in 4% paraformaldehyde/phosphate-buffered saline. Cell membranes were permeabilized by incubating for 5 min in a solution of 0.2% Triton X-100 in phosphate-buffered saline. Cells were then incubated for 30 min in PBS containing 0.005 U/ml fluorescein-phalloidin (Molecular Probes). Cells were rinsed in water and mounted in Vectashield antifade solution (Vector Laboratories) . Fluorescence images were acquired using a Sarastro 2000 confocal laser scanning microscope with a 60x oil-immersion objective. All images were acquired using identical settings for excitation intensity and detector gain.
(§4) FIG. 4. (A) Micrographs are confocal laser scanning microscope images of cultured hippocampal cells stained with fluorescein-labeled phalloidin. Cells were exposed for 3 h to either vehicle (control; left) or 100 nM cytochalasin D (right) prior to staining with phalloidin. The top micrographs show several neurons (arrowheads point to neuronal cell bodies); note reduction in phalloidin fluorescence in cytochalasin-treatedneurons.

[3] = test system: actin filaments in cultured hippocampal neurons; assay: phalloidin fluorescence of actin filaments, neurons
Experimental: as §3, §4
(B) Cytochalasin D and glutamate cause a reduction in neuronal phalloidin fluorescence. […] Values represent the mean fluorescence intensity per neuronal cell body (±SEM; n=15-18). […]

[4] = test system: cultured hippocampal neurons; assay: hydrogen peroxide neurotoxicity
Description: as §1
as §2, with “Usually neurons that died in the time intervals (20-48 h) between examination points were absent.” left out
FIG. 15. […] Cultures were pretreated for 1 h with vehicle (Control), 100 nM cytochalasin D (CyD), or 50 μg/ml vitamin E (vE) and then exposed for 20 h to the indicated concentrations of hydrogen peroxide. Data are mean and SEM values of determinations made in four separate cultures.

[5] = test system: cultured hippocampal neurons; assay: iron (FeSO4) neurotoxicity; conditions: 100 nM, 1 h preincubation
Description: as §1, §2
FIG. 8. Cultures were preincubated 1 h in the presence of 0.5% dimethylsulfoxide (control), 100 nM cytochalasin D, 50 μg/ml vitamin E (VitE), or 2 μM nordihydroguairetic acid (NDGA). Cultures were then exposed for 6 h to the indicated concentrations of FeSO4 and neuronal survival was quantified. Values represent the means and SEM of determinations made in four separate cultures. *P<0.001 compared to value for cultures exposed to 100 μM FeSO4 alone.

Row | SMILES | effect on Aβ neurotoxicity [1] | actin stress fibers in astrocytes [2] | phalloidin staining in neurons ([3]; 100 nM, 1 h) | phalloidin staining in neurons ([3]; 10-1000 nM, 3 h) | effect on neuronal killing by hydrogen peroxide ([4]; 100 nM, 1 h pretreatment, 20 h) | antioxidant activity ([4]; suggested from hydrogen peroxide test) | effect on neuronal loss induced by iron [5]
1 | COc1cc2c(c(OC)c1OC)-c1ccc(OC)c(=O)cc1[C@@H](NC(C)=O)CC2 [Colchicine, colchicine, reference compound] | did not protect neurons against Aβ toxicity |  |  |  |  |  | 
2 | C=C1[C@@H](C)[C@H]2[C@H](Cc3ccccc3)NC(=O)[C@]23[C@H](OC(C)=O)/C=C/[C@@](C)(O)C(=O)[C@@H](C)C/C=C/[C@H]3[C@@H]1O [Cytochalasin D, cytochalasin D] |  | loss of actin stress fibers in astrocytes; also recorded: loss of stress fibers and cell rounding | pronounced reduction in phalloidin staining in neurons; also recorded: loss of fluorescence | concentration-dependent reduction in phalloidin staining in neurons | not altered; also recorded: does not protect neurons against hydrogen peroxide toxicity | little or no antioxidant activity | not significantly altered
